IC50 data for 27 compounds are collected here from patent publication US20080114007A1 (priority 2006, published 2008).

A word on the IC50: it is the concentration at which inhibition is half-maximal.

In this assay the target is CSF-1R (Homo sapiens, UniProt P07333). Description: Peptide (non-phosphorylated) assay, fluorescence polarization competition immunoassay. It is filed as biochemical. The following applies: 0.7 nM CSF-1R, 308 μM SYEGNSYTFIDPTQ peptide, 1 mM ATP, 80 min; mean of at least three determinations; read-out: c-fms Peptide IC50. Put shortly: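 Human CSF-1R kinase reaction started with ATP and run 80 min at room temperature, then stopped with EDTA. Phosphopeptide detected by fluorescence polarization competition using anti-phosphotyrosine antibody and PTK green tracer after 30 min. Controls used 4% DMSO, with EDTA added before reaction start for positive controls.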
CSF-1R, sequence (P07333 20-972): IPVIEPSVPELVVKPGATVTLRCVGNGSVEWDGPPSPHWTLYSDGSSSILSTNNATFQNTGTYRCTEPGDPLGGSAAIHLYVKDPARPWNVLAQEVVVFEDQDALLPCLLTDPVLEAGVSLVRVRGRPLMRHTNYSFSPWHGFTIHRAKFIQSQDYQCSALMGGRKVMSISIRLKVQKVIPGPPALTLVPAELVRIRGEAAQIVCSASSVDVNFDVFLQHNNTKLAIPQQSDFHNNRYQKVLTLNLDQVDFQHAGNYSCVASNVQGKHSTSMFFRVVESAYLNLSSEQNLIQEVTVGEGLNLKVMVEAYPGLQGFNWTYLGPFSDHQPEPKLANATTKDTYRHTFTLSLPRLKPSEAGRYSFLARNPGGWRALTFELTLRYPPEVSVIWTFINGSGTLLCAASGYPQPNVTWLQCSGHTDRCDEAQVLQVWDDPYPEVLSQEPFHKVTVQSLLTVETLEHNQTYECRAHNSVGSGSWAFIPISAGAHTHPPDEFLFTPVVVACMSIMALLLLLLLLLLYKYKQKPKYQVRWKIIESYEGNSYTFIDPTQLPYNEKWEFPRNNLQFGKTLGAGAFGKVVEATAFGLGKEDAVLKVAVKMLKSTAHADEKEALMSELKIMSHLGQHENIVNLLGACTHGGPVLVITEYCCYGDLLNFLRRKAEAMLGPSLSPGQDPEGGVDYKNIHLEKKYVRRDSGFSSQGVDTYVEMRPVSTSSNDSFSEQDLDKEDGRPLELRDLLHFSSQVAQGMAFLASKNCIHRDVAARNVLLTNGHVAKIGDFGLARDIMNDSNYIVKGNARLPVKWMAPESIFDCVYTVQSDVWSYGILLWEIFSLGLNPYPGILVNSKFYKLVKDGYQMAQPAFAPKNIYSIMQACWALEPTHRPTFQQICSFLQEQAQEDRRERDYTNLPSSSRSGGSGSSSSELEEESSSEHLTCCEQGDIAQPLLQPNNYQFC
In the case of `CCc1ccc(-n2cc(C(=O)NOC)c(=O)c3cnc(Nc4ccc(CC(=O)NN5CCCCC5)cc4)nc32)cc1` [Cpd 104, 8-(4-ethyl-phenyl)-5-oxo-2-[4-(piperidin-1-ylcarbamoylmethyl)-phenylamino]-5,8-dihydro-pyrido[2,3-d]pyrimidine-6-carboxylic acid methoxy-amide], the IC50 worked out at 3 nM. `CONC(=O)c1cn(-c2ccc3c(c2)CCC3)c2nc(Nc3ccc(CCN4CCN(C)C(=O)C4)cc3)ncc2c1=O` [Cpd 220, 8-indan-5-yl-2-{4-[2-(4-methyl-3-oxo-piperazin-1-yl)-ethyl]-phenylamino}-5-oxo-5,8-dihydro-pyrido[2,3-d]pyrimidine-6-carboxylic acid methoxy-amide]: the IC50 was found to be 0.75 nM. Next, `COCCOc1ccc(Nc2ncc3c(=O)c(C(=O)NOC)cn(-c4ccc5c(c4)CCC5)c3n2)cc1OCCOC` [Cpd 314, 2-[3,4-bis-(2-methoxy-ethoxy)-phenylamino]-8-indan-5-yl-5-oxo-5,8-dihydro-pyrido[2,3-d]pyrimidine-6-carboxylic acid methoxy-amide]: 0.5 nM. In the case of `CONC(=O)c1cn(-c2ccc3c(c2)CCC3)c2nc(Nc3ccc(CCNCCS(C)(=O)=O)cc3)ncc2c1=O` [Cpd 99, 8-indan-5-yl-2-{4-[2-(2-methanesulfonyl-ethylamino)-ethyl]-phenylamino}-5-oxo-5,8-dihydro-pyrido[2,3-d]pyrimidine-6-carboxylic acid methoxy-amide], the IC50 amounted to 0.9 nM. As for `CONC(=O)c1cn(-c2ccc3c(c2)CCC3)c2nc(Nc3ccc(C4CCCCN4)cc3)ncc2c1=O` (stereo not drawn) [Cpd 246, 8-indan-5-yl-5-oxo-2-(4-piperidin-2-yl-phenylamino)-5,8-dihydro-pyrido[2,3-d]pyrimidine-6-carboxylic acid methoxy-amide], the half-inhibitory concentration (IC50) stood at 0.38 nM.

`NC(=O)c1cn(-c2ccc3c(c2)CCC3)c2nc(Nc3ccc(N4CCC[C@H]4CO)cc3)ncc2c1=O` [Cpd 6, (S)-2-[4-(2-hydroxymethyl-pyrrolidin-1-yl)-phenylamino]-8-indan-5-yl-5-oxo-5,8-dihydro-pyrido[2,3-d]pyrimidine-6-carboxylic acid amide]: the IC50 stood at 3.1 nM.

`CCc1ccc(-n2cc(C(=O)NOC)c(=O)c3cnc(Nc4ccc(CCN5CCNC(=O)C5)cc4)nc32)cc1` [Cpd 224, 8-(4-ethyl-phenyl)-5-oxo-2-{4-[2-(3-oxo-piperazin-1-yl)-ethyl]-phenylamino}-5,8-dihydro-pyrido[2,3-d]pyrimidine-6-carboxylic acid methoxy-amide]: the IC50 was found to be 0.58 nM.

With `CONC(=O)c1cn(-c2ccc3c(c2)C=CC3)c2nc(Nc3ccc(C4CCN(C)CC4)cc3)ncc2c1=O` [Cpd 259, 8-(1H-inden-5-yl)-2-[4-(1-methyl-piperidin-4-yl)-phenylamino]-5-oxo-5,8-dihydro-pyrido[2,3-d]pyrimidine-6-carboxylic acid methoxy-amide], the IC50 was 0.7 nM.

On to `CONC(=O)c1cn(-c2ccc3c(c2)CCC3)c2nc(Nc3cccc(N4CC(C)NC(C)C4)c3)ncc2c1=O` (stereo not drawn) [Cpd 195, 2-[3-(3,5-dimethyl-piperazin-1-yl)-phenylamino]-8-indan-5-yl-5-oxo-5,8-dihydro-pyrido[2,3-d]pyrimidine-6-carboxylic acid methoxy-amide], for which the half-inhibitory concentration (IC50) was 0.96 nM. In the case of `O=C(NO)c1cn(C2CCCCC2)c2nc(Nc3ccc(CCN4CCCC4)cc3)ncc2c1=O` [Cpd 17, 8-cyclohexyl-5-oxo-2-[4-(2-pyrrolidin-1-yl-ethyl)-phenylamino]-5,8-dihydro-pyrido[2,3-d]pyrimidine-6-carboxylic acid hydroxyamide], the IC50 worked out at 0.94 nM. To `C#Cc1ccc(-n2cc(C(N)=O)c(=O)c3cnc(Nc4ccc(CCN5CCN(C)CC5)cc4)nc32)cc1` [Cpd 30, 8-(4-ethynyl-phenyl)-2-{4-[2-(4-methyl-piperazin-1-yl)-ethyl]-phenylamino}-5-oxo-5,8-dihydro-pyrido[2,3-d]pyrimidine-6-carboxylic acid amide] belongs 14 nM; to `CCONC(=O)c1cn(-c2ccc(CC)cc2)c2nc(Nc3ccc(C4CCN(CCO)CC4)cc3)ncc2c1=O` [Cpd 183, 8-(4-ethyl-phenyl)-2-{4-[1-(2-hydroxy-ethyl)-piperidin-4-yl]-phenylamino}-5-oxo-5,8-dihydro-pyrido[2,3-d]pyrimidine-6-carboxylic acid ethoxy-amide], 0.4 nM; to `CONC(=O)c1cn(C2CCCC2)c2nc(Nc3ccc(CCN4CCN(C)CC4)cc3)ncc2c1=O` [Cpd 48, 8-cyclopentyl-2-{4-[2-(4-methyl-piperazin-1-yl)-ethyl]-phenylamino}-5-oxo-5,8-dihydro-pyrido[2,3-d]pyrimidine-6-carboxylic acid methoxy-amide], 1.5 nM. Consider `CONC(=O)c1cn(-c2ccc3c(c2)CCC3)c2nc(Nc3cccc(C(=O)NCCN(C)C)c3)ncc2c1=O` [Cpd 199, 2-[3-(2-dimethylamino-ethylcarbamoyl)-phenylamino]-8-indan-5-yl-5-oxo-5,8-dihydro-pyrido[2,3-d]pyrimidine-6-carboxylic acid methoxy-amide], for which the IC50 stood at 1.4 nM. Regarding `CONC(=O)c1cn(-c2cnc3c(c2)CCC3)c2nc(Nc3ccc(CCO)cc3)ncc2c1=O` [Cpd 227, 8-(6,7-dihydro-5H-[1]pyrindin-3-yl)-2-[4-(2-hydroxy-ethyl)-phenylamino]-5-oxo-5,8-dihydro-pyrido[2,3-d]pyrimidine-6-carboxylic acid methoxy-amide], the IC50 turned out to be 10 nM. Take `CONC(=O)c1cn(-c2ccc(C)c(C)c2)c2nc(Nc3ccc(CCN4CCN(C)CC4)cc3)ncc2c1=O` [Cpd 52, 8-(3,4-dimethyl-phenyl)-2-{4-[2-(4-methyl-piperazin-1-yl)-ethyl]-phenylamino}-5-oxo-5,8-dihydro-pyrido[2,3-d]pyrimidine-6-carboxylic acid methoxy-amide]: the 50% inhibitory concentration (IC50) worked out at 0.8 nM. As for `CCc1ccc(-n2cc(C(=O)NOC)c(=O)c3cnc(Nc4ccc(CCN5CCN(C)CC5)cc4)nc32)cc1` [Cpd 56, 8-(4-ethyl-phenyl)-2-{4-[2-(4-methyl-piperazin-1-yl)-ethyl]-phenylamino}-5-oxo-5,8-dihydro-pyrido[2,3-d]pyrimidine-6-carboxylic acid methoxy-amide], the IC50 stood at 1.1 nM.

`CCc1ccc(-n2cc(C(=O)NOC)c(=O)c3cnc(Nc4ccc(C5CCCCN5CC)cc4)nc32)cc1` (stereo not drawn) [Cpd 245, 8-(4-ethyl-phenyl)-2-[4-(1-ethyl-piperidin-2-yl)-phenylamino]-5-oxo-5,8-dihydro-pyrido[2,3-d]pyrimidine-6-carboxylic acid methoxy-amide]: the IC50 came to 0.29 nM. Consider `CCONC(=O)c1cn(-c2ccc(CC)cc2)c2nc(Nc3ccc(C4CCN(CC(F)(F)F)CC4)cc3)ncc2c1=O` [Cpd 189, 8-(4-ethyl-phenyl)-5-oxo-2-{4-[1-(2,2,2-trifluoro-ethyl)-piperidin-4-yl]-phenylamino}-5,8-dihydro-pyrido[2,3-d]pyrimidine-6-carboxylic acid ethoxy-amide], for which the IC50 stood at 9.7 nM. For `CCc1ccc(-n2cc(C(=O)NOC)c(=O)c3cnc(Nc4ccc(OC5CCN(C)CC5)cc4)nc32)cc1` [Cpd 309, 8-(4-ethyl-phenyl)-2-[4-(1-methyl-piperidin-4-yloxy)-phenylamino]-5-oxo-5,8-dihydro-pyrido[2,3-d]pyrimidine-6-carboxylic acid methoxy-amide], the IC50 came to 0.3 nM.

Take `CN(C)C(=O)c1ccc(Nc2ncc3c(=O)c(C(N)=O)cn(-c4ccc5c(c4)CCC5)c3n2)cc1` [Cpd 123, 2-(4-dimethylcarbamoyl-phenylamino)-8-indan-5-yl-5-oxo-5,8-dihydro-pyrido[2,3-d]pyrimidine-6-carboxylic acid amide]: the IC50 was 4.5 nM. Next, `CCc1ccc(-n2cc(C(=O)NOC)c(=O)c3cnc(Nc4ccc5cc[nH]c5c4)nc32)cc1` [Cpd 286, 8-(4-ethyl-phenyl)-2-(1H-indol-6-ylamino)-5-oxo-5,8-dihydro-pyrido[2,3-d]pyrimidine-6-carboxylic acid methoxy-amide]: 1.3 nM; `CCONC(=O)c1cn(-c2ccc3c(c2)CCC3)c2nc(Nc3ccc(C4CCN(C)CC4)cc3)ncc2c1=O` [Cpd 139, 8-indan-5-yl-2-[4-(1-methyl-piperidin-4-yl)-phenylamino]-5-oxo-5,8-dihydro-pyrido[2,3-d]pyrimidine-6-carboxylic acid ethoxy-amide]: 1 nM. To `CONC(=O)c1cn(-c2ccc3c(c2)CCC3)c2nc(Nc3ccc(CCN4CCS(=O)(=O)CC4)cc3)ncc2c1=O` [Cpd 206, 2-{4-[2-(1,1-dioxo-1λ^6-thiomorpholin-4-yl)-ethyl]-phenylamino}-8-indan-5-yl-5-oxo-5,8-dihydro-pyrido[2,3-d]pyrimidine-6-carboxylic acid methoxy-amide] belongs 1.2 nM; to `CCN1CCC(c2ccc(Nc3ncc4c(=O)c(C(=O)NOC)cn(C5CCC(C)(C)CC5)c4n3)cc2)CC1` [Cpd 208, 8-(4,4-dimethyl-cyclohexyl)-2-[4-(1-ethyl-piperidin-4-yl)-phenylamino]-5-oxo-5,8-dihydro-pyrido[2,3-d]pyrimidine-6-carboxylic acid methoxy-amide], 0.4 nM. In the case of `CCONC(=O)c1cn(C2CCCCC2)c2nc(Nc3ccc(C[C@H]4COC(=O)N4)cc3)ncc2c1=O` [Cpd 23, (S)-8-cyclohexyl-5-oxo-2-[4-(2-oxo-oxazolidin-4-ylmethyl)-phenylamino]-5,8-dihydro-pyrido[2,3-d]pyrimidine-6-carboxylic acid ethoxy-amide], the IC50 was determined as 3 nM. Next, `CONC(=O)c1cn(C2CCCCC2)c2nc(Nc3ccc(N4CC(C)NC(C)C4)cc3)ncc2c1=O` (stereo not drawn) [Cpd 24, 8-cyclohexyl-2-[4-(3,5-dimethyl-piperazin-1-yl)-phenylamino]-5-oxo-5,8-dihydro-pyrido[2,3-d]pyrimidine-6-carboxylic acid methoxy-amide]: 1.8 nM.
